Test [1] has as its target Phosphatidylinositol 4,5-bisphosphate 3-kinase catalytic subunit alpha isoform (Homo sapiens, UniProt P42336). The test can be described thus: Inhibition of PI3Kalpha (unknown origin) by mobility shift assay.
The target of test [2] is T1, Protein deacetylase HDAC6 (Homo sapiens) (UniProt Q9UBN7).
T1 sequence (whole entry): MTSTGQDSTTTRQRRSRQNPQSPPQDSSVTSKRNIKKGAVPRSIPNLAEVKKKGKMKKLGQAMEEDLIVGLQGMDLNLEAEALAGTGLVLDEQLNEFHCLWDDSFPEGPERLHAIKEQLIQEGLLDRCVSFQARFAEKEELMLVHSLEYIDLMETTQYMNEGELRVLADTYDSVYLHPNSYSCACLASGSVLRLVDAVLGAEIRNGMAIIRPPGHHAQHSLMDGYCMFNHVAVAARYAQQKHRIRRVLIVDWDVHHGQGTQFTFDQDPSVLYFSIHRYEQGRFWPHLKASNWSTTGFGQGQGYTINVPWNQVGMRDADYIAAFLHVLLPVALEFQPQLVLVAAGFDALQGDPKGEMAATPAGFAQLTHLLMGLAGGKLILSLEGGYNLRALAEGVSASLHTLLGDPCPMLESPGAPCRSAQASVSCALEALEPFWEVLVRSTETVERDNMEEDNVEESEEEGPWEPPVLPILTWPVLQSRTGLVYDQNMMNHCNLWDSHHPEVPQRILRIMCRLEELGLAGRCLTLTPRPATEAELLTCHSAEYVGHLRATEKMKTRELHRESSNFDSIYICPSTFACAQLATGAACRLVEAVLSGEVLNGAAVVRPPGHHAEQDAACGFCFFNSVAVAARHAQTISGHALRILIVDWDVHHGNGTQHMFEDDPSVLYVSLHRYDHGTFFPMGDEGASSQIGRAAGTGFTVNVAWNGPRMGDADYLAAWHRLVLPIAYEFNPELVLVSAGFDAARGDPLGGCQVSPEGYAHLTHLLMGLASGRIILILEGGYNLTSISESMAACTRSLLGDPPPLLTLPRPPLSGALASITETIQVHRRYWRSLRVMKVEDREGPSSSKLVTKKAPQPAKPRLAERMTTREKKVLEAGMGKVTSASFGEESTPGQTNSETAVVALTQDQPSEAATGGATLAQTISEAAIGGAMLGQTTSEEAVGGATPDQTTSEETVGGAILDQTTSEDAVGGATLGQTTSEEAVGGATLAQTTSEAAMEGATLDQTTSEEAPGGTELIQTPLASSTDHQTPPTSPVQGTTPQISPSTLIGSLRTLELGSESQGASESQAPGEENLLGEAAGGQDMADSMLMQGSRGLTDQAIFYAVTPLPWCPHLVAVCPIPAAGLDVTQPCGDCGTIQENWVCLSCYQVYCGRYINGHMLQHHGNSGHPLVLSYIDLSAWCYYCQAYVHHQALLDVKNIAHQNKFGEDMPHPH
The experiment in a line: Inhibition of HDAC6 in human MV4-11 cells assessed as increase in acetylated alpha-tubulin level incubated for 24 hrs by western blot analysis. Type of test: cell-based. The note with it: dose 0.05-0.45 µM, DDE = dose-dependent effect.

Test [3] deals with MV4-11. The test can be described thus: Induction of cell cycle arrest in human MV4-11 cells assessed as accumulation of cells at G0/G1 phase at 1350 nM incubated for 48 hrs by […]PI staining based flow cytometry (reference value: 33.1%). In kind it is functional. Background: Flow cytometry measures light scatter and fluorescence of single cells or particles in a stream.

Test [4] relates to MV4-11. The test can be described thus: Induction of apoptosis in human MV4-11 cells assessed as early apoptotic cells at 150 nM incubated for 48 hrs by Annexin V-FITC/PI staining based flow cytometry (reference value: 0.95%). In kind it is functional.
The next test has as its system HL-60. The test can be described thus: cells. In kind it is functional, cell-based. The note with it: Homo sapiens, HL-60, 72 h.
The test system of test [5] is MV4-11. The test can be described thus: Induction of apoptosis in human MV4-11 cells assessed as viable cells at 50 nM incubated for 48 hrs by Annexin V-FITC/PI staining based flow cytometry (reference value: 96.5%). In kind it is functional. The note with it: read-out: Activity.
In test [6] the test system is MV4-11. The test can be described thus: Induction of cell cycle arrest in human MV4-11 cells assessed as accumulation of cells at G2/M phase at 50 nM incubated for 48 hrs by […]PI staining based flow cytometry (reference value: 11.5%). Type of test: functional.
The target of test [7] is T1, Protein deacetylase HDAC6 (Homo sapiens). The note with it: dose 100.0 nM.
Description: Inhibition of HDAC6 (unknown origin) at 100 nM
Test [8] has as its system MV4-11. The test can be described thus: Induction of cell cycle arrest in human MV4-11 cells assessed as accumulation of cells at S phase at 450 nM incubated for 48 hrs by […]PI staining based flow cytometry (reference value: 45.5%). In kind it is functional.
The test system of test [9] is MV4-11. The test can be described thus: Induction of cell cycle arrest in human MV4-11 cells assessed as accumulation of cells at G0/G1 phase at 450 nM incubated for 48 hrs by […]PI staining based flow cytometry (reference value: 33.1%). Type of test: functional.
Test [10] concerns MV4-11. The test can be described thus: Induction of apoptosis in human MV4-11 cells assessed as necrotic cells at 50 nM incubated for 48 hrs by Annexin V-FITC/PI staining based flow cytometry (reference value: 0.51%). Type of test: functional.
A further test has as its system HCT-116. The experiment in a line: Antiproliferative activity against human HCT-116 cells assessed as inhibition of cell proliferation incubated for 72 hrs by MTT assay. The note with it: HCT-116, 72 h. In kind it is functional, cell-based.
Test [11] concerns MV4-11. The test can be described thus: Induction of cell cycle arrest in human MV4-11 cells assessed as accumulation of cells at G2/M phase at 150 nM incubated for 48 hrs by […]PI staining based flow cytometry (reference value: 11.5%). In kind it is functional.
Test [12] has as its system MV4-11. The test can be described thus: Induction of apoptosis in human MV4-11 cells assessed as total apoptotic cells at 450 nM incubated for 48 hrs by Annexin V-FITC/PI staining based flow cytometry (reference value: 2.99%). Type of test: functional.
For test [13], the system named is MV4-11. The experiment in a line: Induction of apoptosis in human MV4-11 cells assessed as viable cells at 150 nM incubated for 48 hrs by Annexin V-FITC/PI staining based flow cytometry (reference value: 96.5%). The note with it: read-out: Activity. Type of test: functional.
Test [14] has as its system MV4-11. The test can be described thus: Induction of apoptosis in human MV4-11 cells assessed as necrotic cells at 450 nM incubated for 48 hrs by Annexin V-FITC/PI staining based flow cytometry (reference value: 0.51%). In kind it is functional.
Test [15] concerns MV4-11. The test can be described thus: Induction of apoptosis in human MV4-11 cells assessed as total apoptotic cells at 50 nM incubated for 48 hrs by Annexin V-FITC/PI staining based flow cytometry (reference value: 2.99%). Type of test: functional.
In the next test the test system is HepG2. The test can be described thus: Antiproliferative activity against human HepG2 cells assessed as inhibition of cell proliferation incubated for 72 hrs by MTT assay. In kind it is functional, cell-based. The note with it: HepG2, 72 h.

Molecules are shown by their SMILES. pIC50: −log10 of the molar value.

Phosphatidylinositol 4,5-bisphosphate 3-kinase catalytic subunit alpha isoform, sequence (P42336 whole entry, canonical isoform): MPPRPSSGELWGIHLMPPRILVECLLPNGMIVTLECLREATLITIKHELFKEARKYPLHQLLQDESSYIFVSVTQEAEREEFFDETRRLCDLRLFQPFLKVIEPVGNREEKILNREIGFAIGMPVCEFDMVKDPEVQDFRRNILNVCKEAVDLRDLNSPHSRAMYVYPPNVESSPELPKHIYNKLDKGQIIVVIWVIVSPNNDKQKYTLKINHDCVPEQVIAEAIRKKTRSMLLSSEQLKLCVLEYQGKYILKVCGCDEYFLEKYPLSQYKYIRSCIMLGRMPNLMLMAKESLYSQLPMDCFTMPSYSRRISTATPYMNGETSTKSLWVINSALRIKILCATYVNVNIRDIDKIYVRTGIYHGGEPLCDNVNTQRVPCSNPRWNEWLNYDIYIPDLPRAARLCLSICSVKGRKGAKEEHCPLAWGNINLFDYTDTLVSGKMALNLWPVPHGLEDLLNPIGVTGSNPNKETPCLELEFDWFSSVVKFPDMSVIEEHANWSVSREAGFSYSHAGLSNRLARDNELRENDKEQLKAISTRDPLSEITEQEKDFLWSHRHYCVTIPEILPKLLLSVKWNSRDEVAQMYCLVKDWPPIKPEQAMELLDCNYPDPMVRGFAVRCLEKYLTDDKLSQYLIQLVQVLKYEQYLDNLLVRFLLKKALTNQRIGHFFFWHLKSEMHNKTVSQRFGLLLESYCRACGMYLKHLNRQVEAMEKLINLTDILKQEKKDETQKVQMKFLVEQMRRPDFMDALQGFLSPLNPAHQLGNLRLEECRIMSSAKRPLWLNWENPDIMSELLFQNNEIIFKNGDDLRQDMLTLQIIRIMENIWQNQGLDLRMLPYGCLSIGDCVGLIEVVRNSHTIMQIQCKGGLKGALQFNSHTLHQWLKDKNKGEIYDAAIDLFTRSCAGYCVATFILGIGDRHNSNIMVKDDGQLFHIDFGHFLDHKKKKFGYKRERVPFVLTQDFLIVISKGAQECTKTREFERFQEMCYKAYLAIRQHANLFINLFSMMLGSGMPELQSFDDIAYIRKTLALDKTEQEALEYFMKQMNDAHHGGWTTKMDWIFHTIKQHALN
Description for HL-60: Antiproliferative activity against human HL-60 cells assessed as inhibition of cell proliferation incubated for 72 hrs by CCK8 assay

As a reminder, the pIC50 is −log10 of the IC50, conventionally taken in molar units. In general, inhibition refers to the change of the read-out against control, counted positive when it falls. In the case of `O=C(NO)c1ccc(Cn2cc(-c3cccc4[nH]ncc34)nc(N3CCOCC3)c2=O)cc1`, the pIC50 in test [1] is 6.43; in the test on HL-60, 6.46; in the test on HCT-116, 4.79; in the test on HepG2 it was 5.92. Besides, the inhibition result in test [2] was “Dde”; in test [7] it was 90%. For the same molecule, the Activity in the test on MV4-11 [3] turned out to be 15.2%; with MV4-11 [4], 2.44%; in the test with MV4-11 [6], 24.6%; in the test with MV4-11 [8] it was 34.9%; with MV4-11 [9] it was 15.1%; with MV4-11 [10], 0.34%. In addition, the Activity in the test on MV4-11 [11] came to 32.9%; in the test on MV4-11 [12], 80.7%; in the test on MV4-11 [14] it was 0.69%; with MV4-11 [15], 7.2%. Further, the viability at 0.05 µM with MV4-11 [5] was 92.5%. Also, in the test on MV4-11 [13], the viability at 0.15 µM stood at 79.6%.

The record behind these values is ChEMBL document CHEMBL5096219, “Design, synthesis and biological evaluation of novel pyrazinone derivatives as PI3K/HDAC dual inhibitors” (Bioorg Med Chem, 2022).
